Results published in doi:10.1101/2025.07.30.667614, “Steric control of signaling bias in the immunometabolic receptor GPR84” (bioRxiv, 2025).
Where two headings read alike, the source gives them in different places.

Assays:
[1] = biological target: T1, GPR84 L336A (GPR84-Gi2α fusion protein) (Homo sapiens, UniProt Q9NQS5, L336A); assay: [35S]GTPγS binding assay; format: biochemical
T1 construct: FLAG (N); Gαi2-Cys352Ile (fusion partner) (C); expressed in transfected cells
Procedure: (§1) Membranes were generated from Flp-In™ T-REx™ 293 cells following 100 ng/ml doxycycline treatment to induce receptor expression. Cells were washed with ice-cold phosphate-buffered saline (PBS), removed from dishes by scraping and centrifuged at 1,800 x g for 5 min at 4 °C. Pellets were resuspended in TE buffer (10mM Tris-HCl, 0.1 mM EDTA; pH 7.4) containing a protease inhibitor mixture and homogenized with a 5 ml hand-held homogenizer. Samples were centrifuged at 450 x g for 5 min at 4 °C and the supernatant was further centrifuged at 90,000 x g for 45 min at 4 °C. The resulting pellet was resuspended in TE buffer and protein content was assessed using a BCA protein assay kit.
(§2) Prepared membrane protein (3 μg per well) was incubated in assay buffer (20 mM HEPES, 5 mM MgCl2, 160 mM NaCl, 0.05 % fatty-acid-free bovine serum albumin; pH 7.4) containing the indicated ligand concentrations. The reaction was initiated by addition of [^35S]GTPγS (100 nCi per reaction) with 1 μM GDP, and incubated at 30 °C for 60 min. The reaction was terminated by rapid vacuum filtration through GF/C glassfibre filter-bottom 96-well microplates using a UniFilter FilterMate Harvester (PerkinElmer). Unbound radioligand was removed from filters by three washes with ice-cold PBS. Ultima Gold™ XR was added to dried filters, and [^35S]GTPγS binding quantified by liquid scintillation spectroscopy.

[2] = biological target: T2, GPR84 N104A (GPR84-Gi2α fusion protein) (Homo sapiens, UniProt Q9NQS5, N104A); assay: [35S]GTPγS binding assay; format: biochemical; conditions: for fold reduction in potency compared to wild type: Asn104Ala; for Emax: read-out: Emax ± SEM
T2 construct: FLAG (N); Gαi2-Cys352Ile (fusion partner) (C); expressed in transfected cells
T2 sequence (Q9NQS5 whole entry N104A, the tested form may be a part): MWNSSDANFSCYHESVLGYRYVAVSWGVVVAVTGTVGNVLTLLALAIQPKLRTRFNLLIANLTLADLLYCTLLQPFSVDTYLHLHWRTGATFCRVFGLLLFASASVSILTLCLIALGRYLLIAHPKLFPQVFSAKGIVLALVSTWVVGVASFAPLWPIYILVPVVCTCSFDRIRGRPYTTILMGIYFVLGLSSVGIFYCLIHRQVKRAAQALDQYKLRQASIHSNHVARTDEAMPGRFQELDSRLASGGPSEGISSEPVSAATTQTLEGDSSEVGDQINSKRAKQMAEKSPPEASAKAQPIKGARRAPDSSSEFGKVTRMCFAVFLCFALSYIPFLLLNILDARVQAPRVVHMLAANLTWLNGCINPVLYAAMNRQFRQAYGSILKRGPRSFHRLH
Procedure: as §1, §2

GPR84 N362S = biological target: T3, GPR84 N362S (Homo sapiens, UniProt Q9NQS5, N362S); assay: [35S]GTPγS binding assay; format: biochemical; conditions: for Emax: read-out: Emax ± SEM
T3 construct: FLAG (N); Gαi2-Cys352Ile (fusion partner) (C); expressed in transfected cells
T3 sequence (Q9NQS5 whole entry N362S, the tested form may be a part): as the sequence (Q9NQS5 whole entry N104A, the tested form may be a part) above, with A104N, N362S counted along it
Procedure: as §1, §2

[3] = biological target: T4, GPR84 S169A (GPR84-Gi2α fusion protein) (Homo sapiens, UniProt Q9NQS5, S169A); assay: [35S]GTPγS binding assay; format: biochemical; conditions: for Emax: read-out: Emax ± SEM; for fold reduced potency compared to wild type: Ser169Ala
T4 construct: FLAG (N); Gαi2-Cys352Ile (fusion partner) (C); expressed in transfected cells
T4 sequence (Q9NQS5 whole entry S169A, the tested form may be a part): as the sequence (Q9NQS5 whole entry N104A, the tested form may be a part) above, with A104N, S169A counted along it
Procedure: as §1, §2

[4] = biological target: T5, GPR84 T167A (GPR84-Gi2α fusion protein) (Homo sapiens, UniProt Q9NQS5, T167A); assay: [35S]GTPγS binding assay; format: biochemical; conditions: for Emax: read-out: Emax ± SEM; for fold reduction in potency compared to wild type: Thr167Ala
T5 construct: FLAG (N); Gαi2-Cys352Ile (fusion partner) (C); expressed in transfected cells
T5 sequence (Q9NQS5 whole entry T167A, the tested form may be a part): as the sequence (Q9NQS5 whole entry N104A, the tested form may be a part) above, with A104N, T167A counted along it
Procedure: as §1, §2

[5] = biological target: T6, GPR84 W360A (GPR84-Gi2α fusion protein) (Homo sapiens, UniProt Q9NQS5, W360A); assay: [35S]GTPγS binding assay; format: biochemical; conditions: for fold reduced potency compared to wild type: Trp360Ala; for Emax: read-out: Emax ± SEM
T6 construct: FLAG (N); Gαi2-Cys352Ile (fusion partner) (C); expressed in transfected cells
T6 sequence (Q9NQS5 whole entry W360A, the tested form may be a part): as the sequence (Q9NQS5 whole entry N104A, the tested form may be a part) above, with A104N, W360A counted along it
Procedure: as §1, §2

GPR84 Y332A = biological target: T7, GPR84 Y332A (Homo sapiens, UniProt Q9NQS5, Y332A); assay: [35S]GTPγS binding assay; format: biochemical; conditions: for Emax: read-out: Emax ± SEM
T7 construct: FLAG (N); Gαi2-Cys352Ile (fusion partner) (C); expressed in transfected cells
T7 sequence (Q9NQS5 whole entry Y332A, the tested form may be a part): as the sequence (Q9NQS5 whole entry N104A, the tested form may be a part) above, with A104N, Y332A counted along it
Procedure: as §1, §2

GPR84 Y332F = biological target: T8, GPR84 Y332F (Homo sapiens, UniProt Q9NQS5, Y332F); assay: [35S]GTPγS binding assay; format: biochemical; conditions: for Emax: read-out: Emax ± SEM
T8 construct: FLAG (N); Gαi2-Cys352Ile (fusion partner) (C); expressed in transfected cells
T8 sequence (Q9NQS5 whole entry Y332F, the tested form may be a part): as the sequence (Q9NQS5 whole entry N104A, the tested form may be a part) above, with A104N, Y332F counted along it
Procedure: as §1, §2

[6] = biological target: T9, GPR84 Y81A (GPR84-Gi2α fusion protein) (Homo sapiens, UniProt Q9NQS5, Y81A); assay: [35S]GTPγS binding assay; format: biochemical; conditions: for fold reduced potency compared to wild type: Tyr81Ala; for Emax: read-out: Emax ± SEM
T9 construct: FLAG (N); Gαi2-Cys352Ile (fusion partner) (C); expressed in transfected cells
T9 sequence (Q9NQS5 whole entry Y81A, the tested form may be a part): as the sequence (Q9NQS5 whole entry N104A, the tested form may be a part) above, with Y81A, A104N counted along it
Procedure: as §1, §2

[7] = biological target: GPR84-WT (GPR84-Gi2α fusion protein) (Homo sapiens, UniProt Q9NQS5); assay: [35S]GTPγS binding assay; format: biochemical; conditions: for Emax: read-out: Emax ± SEM
Sequence of GPR84-WT (GPR84-Gi2α fusion protein) (Q9NQS5 whole entry, the tested form may be a part): as the sequence (Q9NQS5 whole entry N104A, the tested form may be a part) above, with A104N counted along it
Sequence of GPR84-WT (GPR84-Gi2α fusion protein) (P04899 with tags, fused parts or gaps C352I partner): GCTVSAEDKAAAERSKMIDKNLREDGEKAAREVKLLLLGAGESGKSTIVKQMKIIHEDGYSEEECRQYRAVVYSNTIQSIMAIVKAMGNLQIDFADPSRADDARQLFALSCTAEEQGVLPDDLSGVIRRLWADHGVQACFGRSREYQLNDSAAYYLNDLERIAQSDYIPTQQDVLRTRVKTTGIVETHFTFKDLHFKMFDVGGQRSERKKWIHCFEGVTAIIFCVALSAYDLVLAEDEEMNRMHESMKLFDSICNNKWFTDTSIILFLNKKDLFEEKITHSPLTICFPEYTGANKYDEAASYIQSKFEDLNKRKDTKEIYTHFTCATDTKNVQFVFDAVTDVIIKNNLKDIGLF
Procedure: as §1, §2

GPR84 L336A [8] = biological target: T10, GPR84 L336A (Homo sapiens, UniProt Q9NQS5, L336A); assay: BRET β-arrestin-1 recruitment assay, HEK293T cells; format: cell-based; conditions: for EC50: L336A, read-out: β-arrestin-1 pEC50 ± SEM (converted)
T10 construct: FLAG (N); eYFP (C); expressed in transfected cells; host or cells: HEK293T, transient
T10 sequence (Q9NQS5 whole entry L336A): as the sequence (Q9NQS5 whole entry N104A, the tested form may be a part) above, with A104N, L336A counted along it
Procedure: (§3) As a control, cells were transfected with 100:1 ratio of empty plasmid and the appropriate arrestin isoform fused to nano-luciferase. After 24 h, cells were seeded at 50,000 cells per well in poly-D-lysine-coated white 96-well plates and incubated at 37°C overnight. After 24 h, cells were washed twice with Hank’s balanced salt solution (HBSS), pH 7.4, and 10 μl/well of the nano-luciferase substrate coelenterazine-h (Nanolight Technologies) was added to a final concentration of 5 μM. Cells were incubated in the dark for 10 min at 37°C, after which 10 μl/well of the agonist compound was added, and the cells were incubated for another 5 minutes. 15 min after coelenterazine-h addition, reading of emission signals were performed on a PHERAstar FS plate reader (BMG Labtech) at 475 and 535 nm, representing nano-luciferase and eYFP emission signals, respectively. The net bioluminescence resonance energy transfer (BRET) ratio (mBRET) was calculated as follows: mBRET=(BRET^sample−BRET^control)*1000whereBRET=Emission^535nm/Emission^475nm

GPR84-WT [9] = biological target: T11, GPR84-WT (Homo sapiens, UniProt Q9NQS5); assay: BRET β-arrestin-1 recruitment assay, HEK293T cells; format: cell-based; conditions: for Emax: HEK-293T
T11 construct: FLAG (N); eYFP (C); expressed in transfected cells; host or cells: HEK293T, transient
T11 sequence (Q9NQS5 whole entry): as the sequence (Q9NQS5 whole entry N104A, the tested form may be a part) above, with A104N counted along it
Procedure: as §3

GPR84 F187A = biological target: T12, GPR84 F187A (Homo sapiens, UniProt Q9NQS5, F187A); assay: BRET β-arrestin-2 recruitment assay, HEK293T cells; format: cell-based; conditions: for EC50: F187A, read-out: β-arrestin-2 pEC50 ± SEM (converted)
T12 construct: FLAG (N); eYFP (C); expressed in transfected cells; host or cells: HEK293T, transient
T12 sequence (Q9NQS5 whole entry F187A): as the sequence (Q9NQS5 whole entry N104A, the tested form may be a part) above, with A104N, F187A counted along it
Procedure: as §3

GPR84 L336A [10] = biological target: T10, GPR84 L336A; assay: BRET β-arrestin-2 recruitment assay, HEK293T cells; format: cell-based; conditions: for EC50: L336A, read-out: β-arrestin-2 pEC50 ± SEM (converted)
Procedure: as §3

GPR84-WT [11] = biological target: T11, GPR84-WT; assay: BRET β-arrestin-2 recruitment assay, HEK293T cells; format: cell-based; conditions: Extended Data Table 4, read-out: β-arrestin-2 pEC50 ± SEM (converted)
Procedure: as §3

[12] = L336A, read-out: pEC50 ± SEM (converted)
[13] = Extended Data Table 4, read-out: β-arrestin-1 pEC50 ± SEM (converted)
[14] = β-arrestin-1 recruitment, Extended Data Table 6

T1 sequence (Q9NQS5 whole entry L336A, the tested form may be a part): as the sequence (Q9NQS5 whole entry N104A, the tested form may be a part) above, with A104N, L336A counted along it

SMILES | EC50 [1, 12] [nM] | fold reduction in potency compared to wild type ([2]; [35S]GTPγS) [fold] | EC50 ([2]; [35S]GTPγS, N104A) [nM] | EC50 (GPR84 N362S; [35S]GTPγS, N362S) [nM] | EC50 ([3]; [35S]GTPγS, S169A) [nM] | fold reduced potency compared to wild type ([3]; [35S]GTPγS) | EC50 ([4]; [35S]GTPγS, T167A) [nM] | fold reduction in potency compared to wild type ([4]; [35S]GTPγS) | fold reduced potency compared to wild type ([5]; [35S]GTPγS) [fold] | EC50 ([5]; [35S]GTPγS, W360A) [nM] | EC50 (GPR84 Y332A; [35S]GTPγS, Y332A) [nM] | EC50 (GPR84 Y332F; [35S]GTPγS, Y332F) [nM] | fold reduced potency compared to wild type ([6]; [35S]GTPγS) [fold] | EC50 ([6]; [35S]GTPγS, Y81A) [nM] | EC50 (GPR84 L336A [8]) [nM] | EC50 (GPR84-WT [9]; [13]) [nM] | Emax (GPR84-WT [9]; [14]) [%] | EC50 (GPR84 F187A) [nM] | EC50 (GPR84 L336A [10]) [nM] | EC50 (GPR84-WT [11]) [nM] | other results
Cc1cc(CCCc2cc(O)c[n+]([O-])c2)ccc1Cl [OX04954] | 0.0427 | ~10 | 11.7 | 24 | 380 | more than 1000 fold | 15.1 | ~10 fold | ~10 | 13.5 | 0.427 | 4.17 | ~10 | 16.2 | 2.14 | 39.8 | 71 ± 4 | 4.07 | 1.32 | 28.2 | Emax ([2]; [35S]GTPγS, N104A): 130 ± 20%; Emax (GPR84 N362S; [35S]GTPγS, N362S): 124 ± 19%; Emax ([3]; [35S]GTPγS, S169A): 47 ± 11%; Emax ([4]; [35S]GTPγS, T167A): 129 ± 15%; Emax ([5]; [35S]GTPγS, W360A): 75 ± 8%; Emax (GPR84 Y332A; [35S]GTPγS, Y332A): 60 ± 11%; Emax (GPR84 Y332F; [35S]GTPγS, Y332F): 151 ± 10%; Emax ([6]; [35S]GTPγS, Y81A): 133 ± 18%; EC50 ([7]; [35S]GTPγS, GPR84-WT, Extended Data Table 3, read-out: pEC50 ± SEM (converted)): 0.661 nM; Emax ([7]; [35S]GTPγS, GPR84-WT, Extended Data Tables 1 and 5): 129 ± 12%; EC50 ([7]; [35S]GTPγS, GPR84-WT, Extended Data Tables 1 and 5, read-out: pEC50 ± SEM (converted)): 0.661 nM; EC50 (GPR84-WT [9]; β-arrestin-1 recruitment, Extended Data Table 6, read-out: pEC50 ± SEM (converted)): 31.6 nM
[O-][n+]1cc(O)cc(CCc2ccc(Cl)c(C(F)(F)F)c2)c1 [OX04529] | 0.0692 | 5 | 3.98 | 16.6 | 417 | ~300 fold | 17.8 | greater than 10 fold | ~10 | 8.71 | 0.347 | 2.57 | ~10 | 21.4 | 1.86 | 49 | 18 ± 4 | 3.09 | 1.23 | 58.9 | fold greater potency than at wild type ([1]; Leu336Ala): more than 10 fold; EC50 ([1]; Leu336Ala, read-out: EC50): ~0.1 nM; Emax [2]: 68 ± 8%; Emax (GPR84 N362S): 126 ± 30%; Emax [3]: 30 ± 2%; Emax [4]: 82 ± 10%; Emax [5]: 75 ± 10%; Emax (GPR84 Y332A): 50 ± 12%; Emax (GPR84 Y332F): 134 ± 12%; Emax [6]: 85 ± 4%; EC50 ([7]; pEC50 ± SEM, [35S]GTPγS, GPR84-WT, Extended Data Table 3): 1.26 nM; EC50 ([7]; pEC50 ± SEM, [35S]GTPγS, GPR84-WT, Extended Data Tables 1 and 5): 1.17 nM; Emax [7]: 119 ± 13%; efficacy in promoting interaction with β-arrestin-1 (GPR84 L336A [8]; Leu336Ala GPR84, HEK293T): full agonist; pEC50 ± SEM (GPR84-WT [9]; [14]): 7.10 ± 10.11; efficacy in promoting interaction with β-arrestin-2 (GPR84 F187A; Phe187Ala GPR84, HEK293T): substantial efficacy; efficacy in promoting interaction with β-arrestin-2 (GPR84 L336A [10]; Leu336Ala GPR84, HEK293T): full agonist
